Measured values published in patent US12291515B2, “Pyrrolidine derivative and use thereof” (Rushi Biotech (Hangzhou) Co., Ltd, priority 2021, dated 2025).
pIC50: −log10 of the molar value.

Columns and labels:
Format in all cases: cell-based
[1] = tested on: Human lung adenocarcinoma cell A549; test: CCK-8 cell proliferation assay, A549; conditions: A549 cells, CCK-8, 24 hrs with drug, OD 450 nm
Procedure: (§1) The effect of samples on the proliferation of human tumor cells in vitro was determined by CCK-8 cell proliferation assay.
(§2) The cells were assayed through a method including the following steps:
(§3) 1) The cells were digested, counted, and prepared into a cell suspension in a corresponding culture medium (Table 1) (5×10^4 cells/ml for CFPAC-1 and RPMI 8226, and 3.5×10^4 cells/ml for rest cells). The cell suspension was added to each well of a 96-well plate in 100 μl well.
(§4) 2) Then the 96-well plate was incubated for 24 hrs in an incubator at 37° C. and 5% CO2.
(§5) 3) The drug was diluted with the culture medium to the required working concentration. 100 μl of the corresponding drug containing medium was added to each well. A negative control group (added with drug-free culture medium) was also set.
(§6) 4) Then the 96-well plate was incubated for 24 hrs in an incubator at 37° C. and 5% CO2.
(§7) 5) The 96-well plate was stained with CCK-8, and The OD value was determined at λ=450 nm.
(§8) a) 10 μl of CCK-8 was added to each well, and incubated in the incubator for another 2-3 hrs.
(§9) b) The content was mixed uniformly by shaking gently on a shaker for 10 min, and the bubbles in the 96-well plate were removed.
(§10) 6) The inhibition rate in each group was calculated.

[2] = tested on: Human hepatoma cell HepG2; test: CCK-8 cell proliferation assay, HepG2; conditions: HepG2 cells, CCK-8, 24 hrs with drug, OD 450 nm
Procedure: as §1, §2, §3, §4, §5, §6, §7, §8, §9, §10

[3] = tested on: Human esophageal cancer cell TE-1; test: CCK-8 cell proliferation assay, TE-1; conditions: TE-1 cells, CCK-8, 24 hrs with drug, OD 450 nm
Procedure: as §1, §2, §3, §4, §5, §6, §7, §8, §9, §10

[4] = tested on: Human gastric cancer cell MKN45; test: CCK-8 cell proliferation assay, MKN-45; conditions: MKN-45 cells, CCK-8, 24 hrs with drug, OD 450 nm
Procedure: as §1, §2, §3, §4, §5, §6, §7, §8, §9, §10

[5] = tested on: Human colon cancer cell HCT-116; test: CCK-8 cell proliferation assay, HCT116; conditions: HCT116 cells, CCK-8, 24 hrs with drug, OD 450 nm
Procedure: as §1, §2, §3, §4, §5, §6, §7, §8, §9, §10

[6] = tested on: Human multiple myeloma cell RPMI 8226; test: CCK-8 cell proliferation assay, RPMI8226; conditions: RPMI8226 cells, CCK-8, 24 hrs with drug, OD 450 nm
Procedure: as §1, §2, §3, §4, §5, §6, §7, §8, §9, §10

[7] = tested on: Human pancreatic cancer cell CFPAC-1; test: CCK-8 cell proliferation assay, CFPAC-1; conditions: CFPAC-1 cells, CCK-8, 24 hrs with drug, OD 450 nm
Procedure: as §1, §2, §3, §4, §5, §6, §7, §8, §9, §10

| Compound | pIC50 [1] | pIC50 [2] | pIC50 [3] | pIC50 [4] | pIC50 [5] | pIC50 [6] | pIC50 [7] |
| --- | --- | --- | --- | --- | --- | --- | --- |
| COc1cccc(OC)c1C(=O)N1CCC(CCCCCCCNC(=O)Nc2ccncc2)C1 (stereo not drawn) [BSS-TP126, 1-(7-(1-(2,6-dimethoxybenzoyl)pyrrolidin-3-yl)heptyl)-2-(4-pyridinyl) urea] | 7.26 | 7.04 | 7.06 | 7.49 | 7.20 | 7.48 | 7.28 |
| O=C(/C=C/c1cccnc1)NCCCCC1CCN(C(=O)c2ccccc2)CC1 [FK866, reference compound] | 7.43 | 7.00 | 6.95 | 7.41 | 7.04 | 7.70 | 7.43 |
| O=C(NCCCCCC1CCN(C(=O)c2ccccc2)C1)Nc1cc(F)nc(F)c1 (stereo not drawn) [BSS-TP021] | 7.48 | 7.38 | 7.19 | 7.19 | 7.11 | 7.38 | 7.51 |
| COc1cccc(OC)c1C(=O)N1CCC(CCCCCCNC(=O)Nc2cc(F)nc(F)c2)C1 (stereo not drawn) [BSS-TP125] | 7.34 | 7.28 | 7.37 | 7.24 | 7.31 | 7.55 | 7.33 |
| O=C(NCCCCCCC1CCN(C(=O)C2CCCS2)C1)Nc1ccncc1 (stereo not drawn) [BSS-TP108, 1-(6-(1-(2-tetrahydrothienylformyl)pyrrolidin-3-yl)hexyl)-2-(4-pyridinyl)urea] | 7.31 | 7.04 | 7.14 | 7.31 | 7.23 | 7.49 | 7.39 |
| COc1cccc(OC)c1C(=O)N1CCC(CCCCCNC(=O)Nc2cc(F)nc(F)c2)C1 (stereo not drawn) [BSS-TP032] | 7.14 | 7.00 | 6.93 | 7.13 | 7.16 | 7.24 | 7.41 |
| O=C(NCCCCCCC1CCN(C(=O)C2CCCO2)C1)Nc1ccncc1 (stereo not drawn) [BSS-TP107, 1-(6-(1-(2-tetrahydrofurylformyl)pyrrolidin-3-yl)hexyl)-2-(4-pyridinyl)urea] | 7.26 | 6.86 | 7.09 | 7.28 | 7.12 | 7.29 | 7.24 |
| O=C(NCCCCCCC1CCN(C(=O)c2ccccc2)C1)Nc1cccnc1 (stereo not drawn) [BSS-TP109, 1-(6-(1-(benzoyl)pyrrolidin-3-yl)hexyl)-2-(3-pyridinyl)urea] | 7.54 | 7.15 | 7.06 | 7.28 | 7.33 | 7.64 | 7.59 |
| COc1cccc(OC)c1C(=O)N1CCC(CCCCCNC(=O)Nc2cccnc2)C1 (stereo not drawn) [BSS-TP033, 1-(5-(1-(2,6-dimethoxybenzoyl)pyrrolidin-3-yl)pentyl)-2-(3-pyridinyl) urea] | 7.19 | 7.09 | 7.06 | 7.19 | 7.14 | 7.28 | 7.25 |
| COc1cccc(OC)c1C(=O)N1CCC(CCCCCCNC(=O)Nc2ccncc2)C1 (stereo not drawn) [BSS-TP102, 1-(6-(1-(2,6-dimethoxybenzoyl)pyrrolidin-3-yl)hexyl)-2-(4-pyridinyl) urea] | 7.64 | 7.46 | 7.54 | 7.52 | 7.57 | 8.00 | 7.89 |
| O=C(NCCCCCCC1CCN(C(=O)c2cc3ccccc3[nH]2)C1)Nc1ccncc1 (stereo not drawn) [BSS-TP121, 1-(6(1-(2-indolylformyl)pyrrolidin-3-yl)hexyl)-2-(4-pyridinyl)urea] | 7.16 | 7.14 | 7.13 | 7.49 | 7.08 | 7.28 | 7.29 |
| O=C(NCCCCCC1CCN(C(=O)c2ccco2)C1)Nc1cccnc1 (stereo not drawn) [BSS-TP028, 1-(5-(1-(furoyl)pyrrolidin-3-yl)pentyl)-2-(3-pyridinyl)urea] | 7.39 | 7.23 | 7.24 | 7.36 | 7.20 | 7.38 | 7.51 |
| O=C(NCCCCCCCC1CCN(C(=O)c2ccccc2)C1)Nc1ccncc1 (stereo not drawn) [BSS-TP131] | 7.37 | 7.17 | 7.16 | 7.33 | 7.12 | 7.54 | 7.44 |
| O=C(NCCCCCC1CCN(C(=O)C2Cc3ccccc3O2)C1)Nc1ccncc1 (stereo not drawn) [BSS-TP027, 1-(5-(1-(2-benzotetrahydrofurylformyl)pyrrolidin-3-yl)pentyl)-2-(4-pyridinyl)urea] | 7.06 | 6.99 | 7.03 | 7.19 | 7.04 | 7.26 | 7.23 |
| O=C(NCCCCCC1CCN(C(=O)c2ccco2)C1)Nc1cc(F)nc(F)c1 (stereo not drawn) [BSS-TP035] | 7.41 | 7.09 | 7.14 | 7.33 | 7.18 | 7.54 | 7.46 |
| O=C(NCCCCCC1CCN(C(=O)C2CCCS2)C1)Nc1ccncc1 (stereo not drawn) [BSS-TP013, 1-(5-(1-(2-tetrahydrothienylformyl)pyrrolidin-3-yl)pentyl)-2-(4-pyridinyl)urea] | 7.09 | 6.88 | 7.01 | 7.14 | 7.17 | 7.35 | 7.39 |
| O=C(NCCCCCC1CCN(C(=O)c2cc3ccccc3o2)C1)Nc1cc(F)nc(F)c1 (stereo not drawn) [BSS-TP036] | 7.24 | 6.90 | 7.03 | 7.28 | 7.11 | 7.31 | 7.38 |

Continued, values first:

| pIC50 [1] | pIC50 [2] | pIC50 [3] | pIC50 [4] | pIC50 [5] | pIC50 [6] | pIC50 [7] | Compound |
| --- | --- | --- | --- | --- | --- | --- | --- |
| 7.23 | 7.19 | 7.09 | 7.21 | 7.21 | 7.62 | 7.38 | O=C(NCCCCCCC1CCN(C(=O)c2ccco2)C1)Nc1cc(F)nc(F)c1 (stereo not drawn) [BSS-TP118] |
| 7.48 | 7.08 | 7.11 | 7.38 | 7.39 | 7.42 | 7.42 | O=C(NCCCCCCC1CCN(C(=O)c2ccccc2)C1)Nc1ccnc(F)c1 (stereo not drawn) [BSS-TP113] |
| 7.41 | 7.09 | 7.16 | 7.10 | 7.08 | 7.51 | 7.33 | O=C(NCCCCCCC1CCN(C(=O)c2cccs2)C1)Nc1ccnc(F)c1 (stereo not drawn) [BSS-TP116] |
| 7.14 | 7.03 | 7.02 | 7.31 | 7.14 | 7.64 | 7.55 | O=C(NCCCCCCCC1CCN(C(=O)c2ccc[nH]2)C1)Nc1ccncc1 (stereo not drawn) [BSS-TP129, 1-(7-(1-(2-pyrrolylformyl)pyrrolidin-3-yl)heptyl)-2-(4-pyridinyl)urea] |
| 7.36 | 6.94 | 6.96 | 7.12 | 7.14 | 7.25 | 7.28 | O=C(NCCCCCCC1CCN(C(=O)c2cccs2)C1)Nc1cccnc1 (stereo not drawn) [BSS-TP110, 1-(6-(1-(2-thienylformyl)pyrrolidin-3-yl)hexyl)-2-(3-pyridinyl)urea] |
| 7.23 | 7.13 | 6.95 | 7.09 | 7.14 | 7.31 | 7.41 | O=C(NCCCCCC1CCN(C(=O)c2cccs2)C1)Nc1cccnc1 (stereo not drawn) [BSS-TP024, 1-(5-(1-(2-thienylformyl)pyrrolidin-3-yl)pentyl)-2-(3-pyridinyl)urea] |
| 7.23 | 7.29 | 7.17 | 7.35 | 7.28 | 7.41 | 7.48 | O=C(NCCCCCC1CCN(C(=O)c2[nH]ccc2F)C1)Nc1ccncc1 (stereo not drawn) [BSS-TP031] |
| 7.37 | 7.21 | 7.12 | 7.49 | 7.28 | 7.70 | 7.43 | O=C(NCCCCCCC1CCN(C(=O)c2ccco2)C1)Nc1ccncc1 (stereo not drawn) [BSS-TP105, 1-(6-(1-(furoyl)pyrrolidin-3-yl)hexyl)-2-(4-pyridinyl)urea] |
| 7.20 | 7.23 | 7.19 | 7.16 | 7.24 | 7.49 | 7.23 | O=C(NCCCCCCC1CCN(C(=O)c2cc3ccccc3[nH]2)C1)Nc1ccnc(F)c1 (stereo not drawn) [BSS-TP123] |
| 7.29 | 7.21 | 7.11 | 7.41 | 7.19 | 7.47 | 7.52 | O=C(NCCCCCCCC1CCN(C(=O)c2ccccc2)C1)Nc1ccnc(F)c1 (stereo not drawn) [BSS-TP132] |
